{
  "source": "patent US20070048250A1",
  "about": "“Methods of treating concomitant constipation in a cancer treatment regimen including imexon” (AmpliMed Corporation, priority 2005, published 2007)",
  "test_system": "patients",
  "experiment": "clinical study of imexon to treat cancer: adverse events (daily dose 5 consecutive days per week, every other week, four-week cycle)",
  "assay_type": "in vivo, human",
  "text": "As described hereinbefore, it has been found, unexpectedly, that the administration of a pharmaceutical composition comprising imexon induces constipation in a large percentage of patients. Of forty nine (49) patients taking part in a clinical study investigating the use of imexon to treat cancer, thirty one (31) patients (63.3%) were reported to have had the gastrointestinal toxicity of constipation in association with their treatment with imexon. […] All other observed gastrointestinal adverse events individually accounted for less than 5% of total gastrointestinal adverse events.\nOf the forty nine (49) patients treated in the clinical study, thirty nine (39) received imexon at a dose equal to or greater than 140 mg/m^2, thirty three (33) received imexon at a dose equal to or greater than 185 mg/m^2, and thirty (30) received imexon at a dose equal to or greater than 245 mg/m^2.\nOf these seventy three (73) constipation adverse events, fifty two (52) of the adverse events (71.2%) were characterized as “possibly,” “probably,” or “definitely related to the treatment” of the patient with imexon.",
  "key": {"[1]": {"conditions": "20 mg/m^2, relationship Not Related"}, "[2]": {"conditions": "80 mg/m^2, relationship Not Related"}, "[3]": {"conditions": "105 mg/m^2, relationship Not Related"}, "[4]": {"conditions": "140 mg/m^2, relationship Not Related"}, "[5]": {"conditions": "140 mg/m^2, relationship Probable"}, "[6]": {"conditions": "140 mg/m^2, relationship Unlikely"}, "[7]": {"conditions": "185 mg/m^2, relationship Not Related"}, "[8]": {"conditions": "185 mg/m^2, relationship Possible"}, "[9]": {"conditions": "185 mg/m^2, relationship Probable"}, "[10]": {"conditions": "245 mg/m^2, relationship Not Related"}, "[11]": {"conditions": "245 mg/m^2, relationship Possible"}, "[12]": {"conditions": "245 mg/m^2, relationship Probable"}, "[13]": {"conditions": "325 mg/m^2, relationship Possible"}, "[14]": {"conditions": "325 mg/m^2, relationship Probable"}, "[15]": {"conditions": "430 mg/m^2, relationship Possible"}, "[16]": {"conditions": "430 mg/m^2, relationship Probable"}, "[17]": {"conditions": "430 mg/m^2, relationship Unlikely"}, "[18]": {"conditions": "570 mg/m^2, relationship Definite"}, "[19]": {"conditions": "570 mg/m^2, relationship Probable"}},
  "data": [
    {"smiles": "N=C1NC(=O)N2CC12", "note": "(stereo not shown) [imexon, 4-imino-1,3-diazabicyclo[3.1.0]-hexan-2-one]", "values": [
      {"measurement": "Constipation Adverse Events, Total", "setting": "20 mg/m^2, relationship Definite", "result": 0},
      {"measurement": "Constipation Adverse Events, Grade 2", "setting": "[1]", "result": 1},
      {"measurement": "Constipation Adverse Events, Grade 3", "setting": "[1]", "result": 1},
      {"measurement": "Constipation Adverse Events, Total", "setting": "[1]", "result": 2},
      {"measurement": "Constipation Adverse Events, Total", "setting": "20 mg/m^2, relationship Possible", "result": 0},
      {"measurement": "Constipation Adverse Events, Total", "setting": "20 mg/m^2, relationship Probable", "result": 0},
      {"measurement": "Constipation Adverse Events, Total", "setting": "20 mg/m^2, relationship Unlikely", "result": 0},
      {"measurement": "Constipation Adverse Events, Total", "setting": "40 mg/m^2, relationship Definite", "result": 0},
      {"measurement": "Constipation Adverse Events, Total", "setting": "40 mg/m^2, relationship Not Related", "result": 0},
      {"measurement": "Constipation Adverse Events, Total", "setting": "40 mg/m^2, relationship Possible", "result": 0},
      {"measurement": "Constipation Adverse Events, Total", "setting": "40 mg/m^2, relationship Probable", "result": 0},
      {"measurement": "Constipation Adverse Events, Total", "setting": "40 mg/m^2, relationship Unlikely", "result": 0},
      {"measurement": "Constipation Adverse Events, Total", "setting": "80 mg/m^2, relationship Definite", "result": 0},
      {"measurement": "Constipation Adverse Events, Grade 2", "setting": "[2]", "result": 3},
      {"measurement": "Constipation Adverse Events, Grade 3", "setting": "[2]", "result": 1},
      {"measurement": "Constipation Adverse Events, Total", "setting": "[2]", "result": 4},
      {"measurement": "Constipation Adverse Events, Total", "setting": "80 mg/m^2, relationship Possible", "result": 0},
      {"measurement": "Constipation Adverse Events, Total", "setting": "80 mg/m^2, relationship Probable", "result": 0},
      {"measurement": "Constipation Adverse Events, Total", "setting": "80 mg/m^2, relationship Unlikely", "result": 0},
      {"measurement": "Constipation Adverse Events, Total", "setting": "105 mg/m^2, relationship Definite", "result": 0},
      {"measurement": "Constipation Adverse Events, Grade 2", "setting": "[3]", "result": 5},
      {"measurement": "Constipation Adverse Events, Grade 3", "setting": "[3]", "result": 3},
      {"measurement": "Constipation Adverse Events, Total", "setting": "[3]", "result": 8},
      {"measurement": "Constipation Adverse Events, Total", "setting": "105 mg/m^2, relationship Possible", "result": 0},
      {"measurement": "Constipation Adverse Events, Total", "setting": "105 mg/m^2, relationship Probable", "result": 0},
      {"measurement": "Constipation Adverse Events, Total", "setting": "105 mg/m^2, relationship Unlikely", "result": 0},
      {"measurement": "Constipation Adverse Events, Total", "setting": "140 mg/m^2, relationship Definite", "result": 0},
      {"measurement": "Constipation Adverse Events, Grade 2", "setting": "[4]", "result": 1},
      {"measurement": "Constipation Adverse Events, Total", "setting": "[4]", "result": 1},
      {"measurement": "Constipation Adverse Events, Total", "setting": "140 mg/m^2, relationship Possible", "result": 0},
      {"measurement": "Constipation Adverse Events, Grade 2", "setting": "[5]", "result": 1},
      {"measurement": "Constipation Adverse Events, Total", "setting": "[5]", "result": 1},
      {"measurement": "Constipation Adverse Events, Grade 2", "setting": "[6]", "result": 2},
      {"measurement": "Constipation Adverse Events, Grade 3", "setting": "[6]", "result": 1},
      {"measurement": "Constipation Adverse Events, Total", "setting": "[6]", "result": 3},
      {"measurement": "Constipation Adverse Events, Total", "setting": "185 mg/m^2, relationship Definite", "result": 0},
      {"measurement": "Constipation Adverse Events, Grade 3", "setting": "[7]", "result": 1},
      {"measurement": "Constipation Adverse Events, Total", "setting": "[7]", "result": 1},
      {"measurement": "Constipation Adverse Events, Grade 1", "setting": "[8]", "result": 1},
      {"measurement": "Constipation Adverse Events, Total", "setting": "[8]", "result": 1},
      {"measurement": "Constipation Adverse Events, Grade 2", "setting": "[9]", "result": 1},
      {"measurement": "Constipation Adverse Events, Total", "setting": "[9]", "result": 1},
      {"measurement": "Constipation Adverse Events, Total", "setting": "185 mg/m^2, relationship Unlikely", "result": 0},
      {"measurement": "Constipation Adverse Events, Total", "setting": "245 mg/m^2, relationship Definite", "result": 0},
      {"measurement": "Constipation Adverse Events, Grade 1", "setting": "[10]", "result": 1},
      {"measurement": "Constipation Adverse Events, Total", "setting": "[10]", "result": 1},
      {"measurement": "Constipation Adverse Events, Grade 2", "setting": "[11]", "result": 4},
      {"measurement": "Constipation Adverse Events, Grade 3", "setting": "[11]", "result": 1},
      {"measurement": "Constipation Adverse Events, Total", "setting": "[11]", "result": 5},
      {"measurement": "Constipation Adverse Events, Grade 2", "setting": "[12]", "result": 2},
      {"measurement": "Constipation Adverse Events, Grade 3", "setting": "[12]", "result": 1},
      {"measurement": "Constipation Adverse Events, Total", "setting": "[12]", "result": 3},
      {"measurement": "Constipation Adverse Events, Total", "setting": "245 mg/m^2, relationship Unlikely", "result": 0},
      {"measurement": "Constipation Adverse Events, Total", "setting": "325 mg/m^2, relationship Definite", "result": 0},
      {"measurement": "Constipation Adverse Events, Total", "setting": "325 mg/m^2, relationship Not Related", "result": 0},
      {"measurement": "Constipation Adverse Events, Grade 2", "setting": "[13]", "result": 2},
      {"measurement": "Constipation Adverse Events, Total", "setting": "[13]", "result": 2},
      {"measurement": "Constipation Adverse Events, Grade 1", "setting": "[14]", "result": 1},
      {"measurement": "Constipation Adverse Events, Grade 2", "setting": "[14]", "result": 2},
      {"measurement": "Constipation Adverse Events, Total", "setting": "[14]", "result": 3},
      {"measurement": "Constipation Adverse Events, Total", "setting": "325 mg/m^2, relationship Unlikely", "result": 0},
      {"measurement": "Constipation Adverse Events, Total", "setting": "430 mg/m^2, relationship Definite", "result": 0},
      {"measurement": "Constipation Adverse Events, Total", "setting": "430 mg/m^2, relationship Not Related", "result": 0},
      {"measurement": "Constipation Adverse Events, Grade 2", "setting": "[15]", "result": 1},
      {"measurement": "Constipation Adverse Events, Total", "setting": "[15]", "result": 1},
      {"measurement": "Constipation Adverse Events, Grade 1", "setting": "[16]", "result": 2},
      {"measurement": "Constipation Adverse Events, Grade 2", "setting": "[16]", "result": 5},
      {"measurement": "Constipation Adverse Events, Grade 3", "setting": "[16]", "result": 1},
      {"measurement": "Constipation Adverse Events, Total", "setting": "[16]", "result": 8},
      {"measurement": "Constipation Adverse Events, Grade 1", "setting": "[17]", "result": 1},
      {"measurement": "Constipation Adverse Events, Total", "setting": "[17]", "result": 1},
      {"measurement": "Constipation Adverse Events, Grade 1", "setting": "[18]", "result": 1},
      {"measurement": "Constipation Adverse Events, Grade 2", "setting": "[18]", "result": 4},
      {"measurement": "Constipation Adverse Events, Grade 3", "setting": "[18]", "result": 2},
      {"measurement": "Constipation Adverse Events, Total", "setting": "[18]", "result": 7},
      {"measurement": "Constipation Adverse Events, Total", "setting": "570 mg/m^2, relationship Not Related", "result": 0},
      {"measurement": "Constipation Adverse Events, Total", "setting": "570 mg/m^2, relationship Possible", "result": 0},
      {"measurement": "Constipation Adverse Events, Grade 1", "setting": "[19]", "result": 1},
      {"measurement": "Constipation Adverse Events, Total", "setting": "[19]", "result": 1}
    ]}
  ]
}
